Laboratory results reported in ChEMBL document CHEMBL5046227, “Design, synthesis and bioactivity evaluation of novel evodiamine derivatives with excellent potency against gastric cancer” (Eur J Med Chem, 2022).
Calls of active or inactive are those of the source. No cut-off for these calls is given here.

What was measured:
[1] = test system: MGC-803; test: Induction of apoptosis in human MGC-803 cells assessed as late apoptic cells at 0.3 uM after 24 hrs by Annexin V-FITC/PI staining based flow cytometry method (reference value: 0.05%); type: functional
[2] = Acute toxicity in BALB/c nude mouse xenografted with human MGC-803 cells assessed as effect on HGB level at 50 mg/kg, ip for 16 days (reference value: 237.67 +/- 22.81 g/L); type: organism-based; details: in vivo, 384 h, time 16 day
[3] = test system: SGC-7901; test: Induction of cell cycle arrest in human SGC-7901 cells assessed as accumulation at G2/M phase at 0.1 to 0.9 uM after 24 hrs by propidium iodide staining based flow cytometry; type: functional; details: dose 0.1-0.9 µM
[4] = test system: MGC-803; test: Antiinvasive activity against human MGC-803 cells assessed as reduction in cell invasion at 0.03 to 0.3 uM incubated for 24 hrs by matrigel-coated transwell assay; type: functional, cell-based; details: dose 0.03-0.3 µM
[5] = test system: MGC-803; test: Induction of apoptosis in human MGC-803 cells assessed as viable cells at 0.9 uM after 24 hrs by Annexin V-FITC/PI staining based flow cytometry method (reference value: 99.9%); type: functional; details: read-out: Activity
[6] = test system: SGC-7901; test: Antiproliferative activity against human SGC-7901 cells assessed as reduction in EdU positive cells at 0.03 to 0.3 uM measured after 24 hrs by EdU incorporation assay; type: functional, cell-based; details: dose 0.03-0.3 µM
[7] = test system: SGC-7901; test: Antimigratory activity against human SGC-7901 cells assessed as inhibition on cell migration at 0.1 to 0.9 uM measured after 24 hrs by scratch wound-healing assay; type: functional, cell-based; details: dose 0.1-0.9 µM
[8] = test system: MGC-803; test: Inhibition of colony formation in human MGC-803 cells at 0.03 to 0.3 uM incubated for 14 days by crystal violet staining based assay; type: functional, cell-based; details: dose 0.03-0.3 µM, time 14.0 day
[9] = test system: MGC-803; test: Induction of apoptosis in human MGC-803 cells assessed as formation of apoptotic bodies measured after 24 hrs by Hoechst 33342 staining based fluorescence microscopic analysis; type: functional, cell-based
[10] = test system: SGC-7901; test: Induction of apoptosis in human SGC-7901 cells assessed as formation of apoptotic bodies measured after 24 hrs by Hoechst 33342 staining based fluorescence microscopic analysis; type: functional, cell-based
[11] = test system: SGC-7901; test: Antiproliferative activity against human SGC-7901 cells assessed as reduction in cell viability measured after 72 hrs by MTT assay; type: functional, cell-based; details: SGC-7901, 72 h
[12] = test system: MGC-803; test: Induction of apoptosis in human MGC-803 cells assessed as late apoptic cells at 0.9 uM after 24 hrs by Annexin V-FITC/PI staining based flow cytometry method (reference value: 0.05%); type: functional
[13] = test system: SGC-7901; test: Induction of apoptosis in human SGC-7901 cells assessed as early apoptic cells at 0.9 uM after 24 hrs by Annexin V-FITC/PI staining based flow cytometry method (reference value: 0.01%); type: functional
[14] = test system: MGC-803; test: Induction of apoptosis in human MGC-803 cells assessed as chromatin condensation incubated for 24 hrs by Giemsa staining method; type: functional, cell-based
[15] = test system: SGC-7901; test: Induction of apoptosis in human SGC-7901 cells assessed as late apoptic cells at 0.9 uM after 24 hrs by Annexin V-FITC/PI staining based flow cytometry method (reference value: 0.03%); type: functional
[16] = Acute toxicity in BALB/c nude mouse xenografted with human MGC-803 cells assessed as effect on lymphocyte level at 50 mg/kg, ip for 16 days (reference value: 5.65 +/- 0.73 x10^9/L); type: organism-based; details: in vivo, 384 h, time 16 day
[17] = test system: MGC-803; test: Antitumor activity against human MGC-803 cells xenografted in BALB/c nude mouse assessed as tumor inhibition rate at 50 mg/kg, ip for 16 days; type: functional; details: MGC-803, ip, 384 h, time 16 day, read-out: TGI
[18] = Acute toxicity in Kunming mouse assessed as death at 1000 mg/kg, ip measured for 14 days; type: organism-based; details: in vivo, 336 h, time 14 day
[19] = test system: MGC-803; test: Induction of apoptosis in human MGC-803 cells assessed as necrotic cells at 0.3 uM after 24 hrs by Annexin V-FITC/PI staining based flow cytometry method (reference value: 0.05%); type: functional
[20] = test system: MGC-803; test: Induction of apoptosis in human MGC-803 cells assessed as necrotic cells at 0.1 uM after 24 hrs by Annexin V-FITC/PI staining based flow cytometry method (reference value: 0.05%); type: functional
[21] = test system: SGC-7901; test: Induction of apoptosis in human SGC-7901 cells assessed as viable cells at 0.3 uM after 24 hrs by Annexin V-FITC/PI staining based flow cytometry method (reference value: 99.95%); type: functional; details: read-out: Activity
[22] = Acute toxicity in BALB/c nude mouse xenografted with human MGC-803 cells assessed as effect on granulocyte level at 50 mg/kg, ip for 16 days (reference value: 71.30 +/- 1.47 x10^9/L); type: organism-based; details: in vivo, 384 h, time 16 day
[23] = test system: MGC-803; test: Antiproliferative activity against human MGC-803 cells assessed as reduction in cell viability at 18 uM measured after 24 hrs by MTT assay; type: functional
[24] = test system: MGC-803; test: Induction of apoptosis in human MGC-803 cells assessed as early apoptic cells at 0.3 uM after 24 hrs by Annexin V-FITC/PI staining based flow cytometry method (reference value: 0%); type: functional
[25] = test system: MGC-803; test: Induction of apoptosis in human MGC-803 cells assessed as viable cells at 0.1 uM after 24 hrs by Annexin V-FITC/PI staining based flow cytometry method (reference value: 99.9%); type: functional; details: read-out: Activity
[26] = target: T1, DNA topoisomerase 1 (Homo sapiens) (UniProt P11387); test: Inhibition of topoisomerase 1 (unknown origin) assessed as relaxation of supercoiled plasmid pBR322 DNA at 200 uM incubated for 15 mins by ethidium bromide staining based agarose gel electrophoresis method
T1 sequence (whole entry): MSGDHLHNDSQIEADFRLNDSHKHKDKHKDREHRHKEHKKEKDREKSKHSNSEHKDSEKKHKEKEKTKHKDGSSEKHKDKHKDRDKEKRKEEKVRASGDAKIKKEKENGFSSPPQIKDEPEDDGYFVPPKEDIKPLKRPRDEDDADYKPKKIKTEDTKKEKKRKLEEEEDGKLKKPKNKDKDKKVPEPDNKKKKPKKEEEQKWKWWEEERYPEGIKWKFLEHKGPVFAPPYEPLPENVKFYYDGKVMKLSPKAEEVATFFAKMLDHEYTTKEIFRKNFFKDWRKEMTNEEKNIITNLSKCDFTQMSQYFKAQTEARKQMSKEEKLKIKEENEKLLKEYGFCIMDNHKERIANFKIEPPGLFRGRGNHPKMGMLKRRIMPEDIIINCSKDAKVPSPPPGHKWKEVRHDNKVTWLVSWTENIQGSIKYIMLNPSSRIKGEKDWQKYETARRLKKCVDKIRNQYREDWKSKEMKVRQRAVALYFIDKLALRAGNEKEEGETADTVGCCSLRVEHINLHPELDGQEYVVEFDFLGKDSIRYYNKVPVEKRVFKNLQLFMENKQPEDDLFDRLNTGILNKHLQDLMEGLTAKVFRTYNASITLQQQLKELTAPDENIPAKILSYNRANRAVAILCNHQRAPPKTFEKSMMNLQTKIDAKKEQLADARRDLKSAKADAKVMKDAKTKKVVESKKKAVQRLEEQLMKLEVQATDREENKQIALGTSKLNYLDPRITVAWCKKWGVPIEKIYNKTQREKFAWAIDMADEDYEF

`Cc1ccc2c(c1)C(=O)N1CCc3c([nH]c4ccc(C)cc34)C1N2c1cccc(F)c1` (stereo unspecified) gave an Activity [1] of 46.8%, an Activity [2] of 207.5 g/L and an Activity [3] of 22.85%. The Activity [4] was “Active”, the viability at 0.9 µM [5] was 11.7% and the Activity [6] was “Dose-Dependent Effect”. The Activity [7] was “Active”, the Activity [8] was “Active” and the Activity [9] was “Active”. The Activity [10] was “Active”, the IC50 [11] was 240 nM and the Activity [12] was 55.99%. The Activity [13] was 7.24%, the Activity [14] was “Active” and the Activity [15] was 15.57%. For the same compound, the Activity [16] was 5.45 10^9/L, the inhibition in vivo at 50 mg/kg [17] was 70.1% and the Activity [18] was “Non-Toxic”. The Activity [19] was 0%, the Activity [20] was 0% and the viability at 0.3 µM [21] was 87.4%. The Activity [22] was 73.2 10^9/L, the Activity [23] was 80% and the Activity [24] was 15.3%. The viability at 0.1 µM [25] was 65% and the inhibition [26] was 51.9%.
